Results taken from patent US20110207807A1, “NEW USE FOR HOMOISOFLAVONE OR A SALT THEREOF” (Catholic University Industry Academy Cooperation Foundation, priority 2008, published 2011).

How the values were obtained:
cPLA2 [1] = test: UV-induced cPLA2 phosphorylation in HaCaT cells (Western blot); type: cell-based, human; details: 1 μg/mL, UV (FIG. 2b)
Method: (§1) In order to identify the intracellular factors affecting COX-2 expression that are affected by homoisoflavanone, Western blotting was carried out in the same manner as in Example 2-1 except for treating with homoisoflavanone at 1 μg/mL, irradiating UV for 45 minutes and using rabbit anti-p-cytosolic phospholipase A2 (cPLA2) antibody, rabbit anti-cPLA2 antibody, rabbit anti-ERK antibody, rabbit anti-p-ERK antibody, rabbit anti-p38 antibody or rabbit anti-p-p38 antibody and using anti-rabbit IgG-HRP conjugation antibody (Zymed) as secondary antibody. Positive control groups were treated with 1 μM SB203580 (A.G. Scientific, Inc.) as p38 inhibitor or 10 μM PD98059 (A.G. Scientific, Inc.) as MEK 1 inhibitor instead of homoisoflavanone.

p38 = test: UV-induced p38 phosphorylation in HaCaT cells (Western blot); type: cell-based, human; details: 1 μg/mL, UV (FIG. 2c)
Method: as §1

ERK = test: UV-induced ERK phosphorylation in HaCaT cells (Western blot); type: cell-based, human; details: 1 μg/mL, UV (FIG. 2d)
Method: as §1

IL-8 = test: UV-induced IL-8 mRNA expression in HaCaT cells (real-time PCR); type: cell-based, human; details: 1 μg/mL, UV 100 J/m^2, compared to control group (FIG. 3)
Method: (§2) 1×10^6 HaCaT cells were inoculated on a 100-mm culture dish and cultured in DMEM containing 10% FBS for 24 hour. Then, the cells were starved by culturing for 24 hours in DMEM containing 1% FBS. Then, after treating with homoisoflavanone at 1 μg/mL for 1 hour, the cells were washed 3 times with PBS and irradiated with UV at 100 J/m^2 to induce increase of cytokines. Immediately after the UV radiation, the cells were washed again with PBS and further cultured for 2 or 5 hours in DMEM containing 1% FBS which had been treated with homoisoflavanone at the same concentration.
(§3) After extracting RNA from the cells of each test group using TRIzol (Invitrogen, USA), cDNA was prepared by carrying out PCR (PTC-225 Peltier thermal cycler, MJ Research, USA). Then, the mRNA expression of IL-6, IL-8 and TNF-α was measured through real-time PCR (Roter Gene 6000 series, Corbett Research, Australia) using the cDNA as template and using commercially available IL-6, IL-8 and TNF-α primers. The expression level of the pro-inflammatory cytokines was compared relative to the non-treated group.

TNF-α = test: UV-induced TNF-α mRNA expression in HaCaT cells (real-time PCR); type: cell-based, human; details: 1 μg/mL, UV 100 J/m^2, compared to control group (FIG. 3)
Method: as §2, §3

hairless mouse (SKH-1) = test: Ear edema induced by phorbol 12-myristate 13-acetate in animal model; type: in vivo
Method: In order to confirm the in vitro test result on the human keratinocytes HaCaT cells in an animal model, experiment was performed as follows using hairless mouse (SKH-1). Test groups are as follows: non-treated group—treated not with phorbol 12-myristate 13-acetate but only with acetone (TPA); test group A—treated with 1 μg/10 μL homoisoflavanone or 50 μg/10 μL dexamethasone; control group (TPA)-treated with 100 μM phorbol 12-myristate 13-acetate; test group B—treated with 1 μg/10 μL homoisoflavanone or 50 μg/10 μL dexamethasone as well as 100 μM phorbol 12-myristate 13-acetate.
One hour before treating with phorbol 12-myristate 13-acetate, 1 μg/10 μL homoisoflavanone or 50 μg/10 μL dexamethasone was applied on the front and rear parts of the ear, 5 μL each. Then, 6 hour after the application of phorbol 12-myristate 13-acetate, ear thickness and weight were measured.
In order to investigate overall change in the skin tissue, hematoxylin-eosin staining was carried out.

BALB/c mouse = test: Ear edema induced by arachidonic acid in animal model; type: in vivo; details: topical 1 μg/10 μL homoisoflavanone or 50 μg/10 μL dexamethasone 1 h before arachidonic acid 100 mg/mL 10 μL, 1 hour after AA, vs AA control (FIG. 5a, 5b)
Method: Experiment was carried out as follows using BALB/c mouse. Test groups are as follows: non-treated group—treated not with arachidonic acid (AA) but only with acetone; control group (AA)-treated with arachidonic acid; test group A—treated with 1 μg/10 μL homoisoflavanone or 50 μg/10 μL dexamethasone as well as 100 mg/mL 10 μL arachidonic acid.
One hour before treating with arachidonic acid, 1 μg/10 μL homoisoflavanone or 50 μg/10 μL dexamethasone was applied on the front and rear parts of the ear, 5 μL each. Then, 1 hour after applying 100 mg/mL 10 μL arachidonic acid, ear thickness and weight were measured.

COX-2 = COX-2 expression induced by PMA and A23187 in human mast cells (Western blot); type: cell-based; details: HMC-1, homoisoflavanone 2 μg/mL or celecoxib 60 μM, 50 nM PMA + 1 μM A23187, 21 hours (FIG. 7a)
Method: In order to investigate the effect of homoisoflavanone on COX-2 expression induced by phorbol 12-myristate 13-acetate and A23187 in human mast cells, 1×10^6 HMC-1 cells were inoculated on a 100-mm culture dish and cultured in IMDM containing 10% FBS for 48 hours.

cPLA2 [2] = test: cPLA2 phosphorylation induced by PMA and A23187 in HMC-1 (Western blot); type: cell-based, human; details: HMC-1, 2 μg/mL, 50 nM PMA + 1 μM A23187, 4 hours (FIG. 7c)
Method: 1×10^6 HMC-1 cells were inoculated on a 100-mm culture dish and cultured in IMDM containing 10% FBS for 48 hours. […] Then, Western blotting was carried out in the same manner as in Example 2-1 except for using rabbit anti-p-cytosolic phospholipase A2 (cPLA2) antibody, rabbit anti-cPLA2 antibody, rabbit anti-ERK antibody and rabbit anti-p-ERK antibody (Cell Signaling) and using anti-rabbit IgG-HRP conjugation antibody (Zymed) as secondary antibody.

Hairless mice = test: Ear edema transiently induced by croton oil in animal model; type: in vivo, mouse; details: 1 μg/10 μL topical 1 h before 1.6% croton oil, 6 hours after croton oil (FIG. 10b)
Method: Hairless mice were subdivided into a non-treated group (treated with acetone only, not with croton oil), a control group (treated with 1.6% croton oil) and a test group (treated with 1 μg/10 μL homoisoflavanone and 1.6% croton oil), and the effect on ear edema induced by croton oil was investigated.
One hour before treating with 1.6% croton oil, 1 μg/10 μL homoisoflavanone was applied on the front and rear parts of the ear, 5 μL each. Then, 6 hours after treating with croton oil, ear thickness was measured.

[3] = topical 1 μg/10 μL homoisoflavanone or 50 μg/10 μL dexamethasone 1 h before 100 μM TPA, 6 hour after TPA, vs TPA control (FIG. 4a, 4b)

## COc1ccc(CC2COc3cc(O)cc(O)c3C2=O)cc1O (stereo not shown) [homoisoflavanone]
cPLA2 [1]
  phosphorylation of cPLA2: inhibited
p38
  phosphorylation of p38: inhibited
ERK
  phosphorylation of ERK: inhibited
IL-8
  expression of IL-8 (mRNA) induced by UV: decreased expression
TNF-α
  expression of TNF-α (mRNA) induced by UV: decreased expression
Hairless mouse (SKH-1); 1 μg/10 μL homoisoflavanone or 50 μg/10 μL dexamethasone plus TPA (FIG. 4c)
  hyperplasia in the epidermis (hematoxylin-eosin staining): significantly reduced
Hairless mouse (SKH-1); [3]
  ear thickness: decrease
  ear weight: decrease
BALB/c mouse
  ear thickness: decrease
  ear weight: decrease
COX-2
  inhibition of COX-2 expression: 80%
cPLA2 [2]
  cPLA2 phosphorylation: inhibited
Hairless mice
  decrease in ear thickness: 63%
